Results: publication PMC9920732 (2023)

Experiments:
Assay in all cases: FRET quenching titration (qPCR instrument)
Settings in all cases: 150 mM KCl, 15 mM NaCl; 20 mM Tris pH 7.4, 37 °C, 1 µM DNA; duplex shifted to quadruplex, complete at 50 µM pyridostatin
[1] = tested on: A:U (Tel22-T annealed to U-containing complement) (DNA, duplex, 2'-deoxyuridine at 10 of strand 2) AGGGTTAGGGTTAGGGTTAGGG/CCCTAACCCUAACCCTAACCCT
[2] = tested on: A:Gap (Tel22-T annealed to two shorter complements, one-base gap) (DNA, duplex, 5'-phosphate on strand 3; one-base gap between strands 2 and 3) AGGGTTAGGGTTAGGGTTAGGG/CCCTAACCC/AACCCTAACCCT
[3] = tested on: A:THF (Tel22-T annealed to complement with abasic site) (DNA, mismatch bulge abasic, tetrahydrofuran (THF) abasic site at 10 of strand 2) AGGGTTAGGGTTAGGGTTAGGG/CCCTAACCCNAACCCTAACCCT

binding [1]: yes | binding [2]: yes | binding [3]: yes
Compound: NCCOc1cc(C(=O)Nc2cc(OCCN)c3ccccc3n2)nc(C(=O)Nc2cc(OCCN)c3ccccc3n2)c1
